Data reported in patent US10662210B2, “Compositions and methods comprising osmium for the treatment of cancers” (Massachusetts Institute of Technology, priority 2014, dated 2020).

Columns and labels:
[1] = Stability of 2 by UV-vis spectroscopy and variable temperature 1H NMR; format: physicochemical
Excerpt: The bidentate ligands used were 2,2′-bipyridine, 1,10-phenanthroline, 3,4,7,8-tetramethyl-1,10-phenanthroline, and 4,7-diphenyl-1,10-phenanthroline. The complexes were synthesized by reacting (Bu4N)[OsNCl4] with the appropriate ligand in acetone or dichloromethane. Characterization of 1-4 and the crystal structure of 4 are reported in Example 4. Prior to carrying out cellular studies, the stability of 2, taken as a representative member of the family, in phosphate buffered saline (PBS) and DMEM cell culture media was established by UV-vis spectroscopy. […] The water-octanol coefficient (log P) for each compound was also determined.

pUC19 plasmid DNA = experiment: Agarose gel electrophoresis of plasmid DNA; format: biochemical; settings: 24 h, 37° C.
Protocol: The osmium compounds were hypothesized to induce cell death through DNA interactions. Therefore, the interaction of 2 or 4 with pUC19 plasmid DNA was investigated using gel electrophoresis; the results of which are as shown in FIG. 6. As the concentration of 2 increased, there was a clear increase in the amount of nicked circular, and a concomitant decrease in the amount of supercoiled, plasmid DNA. At concentrations >250 μM, the bands in the gel smeared and then disappeared. […] The DNA binding kinetics of 2 and 4 were studied by measuring the amount of osmium bound to precipitated ct-DNA; the results of which are as shown in FIG. 7. The half-life of this reaction for 2 was 2 hours.
Plasmid DNA (pUC19) was kindly donated. The DNA binding ability of the osmium complexes was determined by monitoring the conversion of supercoiled plasmid DNA (form I) to nicked circular DNA (form II) using agarose gel electrophoresis. To probe the effect of Os-complex concentration, solutions containing […] of DNA and 0, 10, 20, 50, 100, 250, 500, and 1000 μM of the osmium complexes with a total reaction volume of 15 μL were incubated at 37° C. for 24 h. […] The DNA bands were analysed under UV light using a Flor-S reader (BioRad).

HMLER CSC-depleted = experiment: Cytotoxicity against CSC-depleted breast cancer cells; format: cell-based
Excerpt: (§1) Cancer relapse is strongly linked to the existence of CSCs. […] Conventional chemotherapy and radiotherapy are often ineffective against CSCs. Although current therapies effectively reduce tumor mass by destroying the bulk of cancer cells, they are unable to remove CSCs, which persist and generate new tumors, often of a far more aggressive nature. Therefore, in order to improve clinical outcomes, treatments must have the ability to kill the entirety of cancer cells, including CSCs. The osmium compound, described in Formula (I), wherein X^1, X^2, and X^3 were chloride ligands and the bidentate ligand was a 1,10-phenanthroline ligand, was able to kill breast cancer cells (HMLER) enriched with CSCs, 2.3-fold better than CSC-depleted breast cancer cells. […] The selectivity of the osmium compound can be seen in Table 2 as well as FIGS. 17A-B and 18.
(§2) The colorimetric MTT assay was used to determine the toxicity of the osmium complexes and cisplatin. Cells (2×10^3) were seeded in each well of a 96-well plate. After incubating the cells overnight, various concentrations of test compound (0.3-100 μM) were added and incubated for 72 h (total volume 200 μL). The test compounds were prepared as 10 mM solutions in DMSO and diluted using media. The final concentration of DMSO in each well was 0.5% and this amount was present in the untreated control as well. Cisplatin was prepared as a 5 mM solution in PBS and diluted further using media. After 72 h, the medium was removed, 200 μL of a 0.4 mg/mL solution of MTT in DMEM or RPMI was added, and the plate was incubated for an additional 1-2 h. The DMEM/MTT or RPMI/MTT mixture was aspirated and 200 μL of DMSO was added to dissolve the resulting purple formazan crystals. The absorbance of the solution wells was read at 550 nm. Absorbance values were normalized to DMSO-containing control wells and plotted as concentration of test compound versus % cell viability. IC50 values were interpolated from the resulting dose dependent curves. The reported IC50 values are the average from at least three independent experiments, each of which consisted of six replicates per concentration level.

HMLER^tax CSC-enriched = experiment: Cytotoxicity against CSC-enriched breast cancer cells; format: cell-based
Excerpt: as §1, §2

ER of A2780 cells = experiment: Fluorescence microscopy of ER size (ER tracker Blue); format: cell-based, human; settings: 10 μM
Protocol: This finding led to the investigation of the possibility that 4 may induce endoplasmic reticulum (ER) stress. Co-administration of 4 and salubrinal (10 μM), a known ER stress inhibitor, reduced the cytotoxicity of 4 in A2780 cells. […] To further validate the ER as the main target for 4, the expression of proteins related to the unfolded protein response (UPR) was monitored. […] ER membrane expansion is widely associated with ER stress. With this fact in mind the ER size of A2780 cells upon incubation with 4 were examined using fluorescence microscopy. Relative to untreated controls (FIG. 3B), cells exposed to 4 (10 μM) for 4 h had 25.1% larger ER coverage (FIG. 3C). […]
A2780 cells (1×10^4) were incubated with and without 4 (10 μM) for 6 h. […] Fluorescence imaging experiments were performed using a Zeiss Axiovert 200M inverted epifluorscence microscope with a Hamamatsu EM-CCD digital camera C9100 and a MS200 XY Piezo Z stage (Applied Scientific Instruments, Inc.). […] The exposure time for acquisition of fluorescence images was kept constant for each series of images at each channel. The ER and whole cell size was quantified using ImageJ (version 1.45, NIH). The size of the whole cell was measured by tracing the outline of the cell membrane in the DIC view. The size of the ER was measured by tracing the outline of emission observed from ER tracker Blue in the DAPI (blue) channel. […]

Row | SMILES | stability in phosphate buffered saline (PBS) and DMEM cell culture media ([1]; UV-vis spectroscopy) | thermal stability ([1]; variable temperature 1H NMR spectroscopy) | effect on pUC19 DNA in gel electrophoresis (pUC19 plasmid DNA) | IC50 (HMLER CSC-depleted) | IC50 (HMLER^tax CSC-enriched) | HMLER^tax selectivity (HMLER^tax CSC-enriched; CSC-enriched vs CSC-depleted) | larger ER coverage relative to untreated controls (ER of A2780 cells; 4 h) | ER size relative to the whole cell (ER of A2780 cells; treated samples)
1 | [N]#[Os]1([Cl])([Cl])([Cl])[N]2C=CC=c3ccc4c(c32)[N]1C=CC=4 [Complex 2, OsN(1,10-phenanthroline)Cl3] | established | demonstrated | induced conformational changes and degradation of circular DNA | 11.2 µM | 4.91 µM | 2.31 |  | 
2 | [N]#[Os]1([Cl])([Cl])([Cl])[N]2C=CC(c3ccccc3)=c3ccc4c(c32)[N]1C=CC=4c1ccccc1 [Complex 4, OsN(4,7-diphenyl-1,10-phenanthroline)Cl3] |  |  | no visible effect |  |  |  | 25.1% | about 55%
